Measurements from US9815790B2, “Chemically modified quinoline and quinolone derivatives useful as CB-1 inverse agonists” (Janssen Pharmaceutica NV, priority 2015, dated 2017).

Assays:
[1] = target: CB-2 receptor (Human CB2R, Cannabinoid receptor 2) (Homo sapiens (Human), UniProt P34972); experiment: cAMP HTRF assay, CB-2 in stably transfected HEK-293 cells; assay type: cell-based; conditions: 250 nM Forskolin, mean where tested more than once, read-out: CB2 EC50
From the text: (§1) CB1 and CB2 receptors are Gi-coupled GPCR. Activation of CB1 and CB2 receptors results in a decrease in cAMP production. An inverse agonist of the CB1 or CB2 receptor results in the opposite effect, an increase of cAMP production. The principle of this assay is based on HTRF® technology (Homogeneous Time-Resolved Fluorescence). The method is a competitive immunoassay between native cAMP produced by cells and the cAMP labeled with the fluorophore d2. The tracer binding is quantified by a Mab anti-cAMP labeled with Eu3+TBP-NHS Cryptate (supplied as part of the assay kit). The specific signal (i.e. energy transfer) is inversely proportional to the concentration of cAMP in the standard or sample.
(§2) Human CB (Cannabinoid receptor 1) was stably transfected in HEK-293 cells (DiscoveRx, cat: 93-0200C1). Human CB2R (Cannabinoid receptor 2) was stably transfected in HEK-293 cells (DiscoveRx, cat: 93-0201C1). Cell cultures were maintained in media: DMEM (Invitrogen Cat#12430-054) supplemented with 10% HI FBS (Invitrogen Cat#16140-071), 1% L-glutamine (Invitrogen Cat#25030-081), 0.2 mg/mL Hygromycin B (Invitrogen Cat#10687-010), 600 μg/mL G418 (Invitrogen Cat#10131-035), and 1× Penn/Strep (Invitrogen 15140-122). After cell expansion, aliquots were cryo-stored in media containing 5% DMSO (Pierce Cat#20684).
(§3) One day prior to experiments media was warmed to 37° C. and the cryo-stored cells were thawed in a 37° C. water bath. The cells were then added to media (10× volume) and the mixture was centrifuged at 1000 RPM for 5 min. The supernate was removed and the cells were re-suspended in media. A sample of the cell suspension was evaluated on a Cedex XS automated cell counter (Innovatis Systems) to determine viable cells/mL. Additional media was added to the cells to achieve a final cell density of 4E5 cells/mL. The cells were then plated into 384 well PDL white solid bottom plates (Greiner, Cat#781945) at 20 μL per well using a Multidrop (Thermo Scientific). Cells were removed from Row P (location of cAMP standards). Two columns of cells were plated into a clear bottom 384 well PDL coated plate (Greiner, Cat#781944) to view confluence the day of the assay. The cell plates were lidded and stored for 15 minutes in a hood, then transferred to an incubator (37° C., 5% CO2, 95% humidity) overnight.
(§4) Test compounds were solubilized in DMSO at 10 mM or for pegylated compounds 4 or 1 mM. DMSO was added to all wells of 384 well V bottom polystyrene plate (Greiner, Cat#781280) except to columns 1 and 13, rows O and P and wells M13-M23 and N13-N23. Test compounds (60 μL, 10 mM or 4 mM or 1 mM) were added to Column 1 and 13 (A1 through N1 and A13 through L13). Test compounds were serially diluted ⅓ by transferring and mixing 20 μL sample with 40 μL DMSO.
(§5) DMSO (40 μL) was added to wells of 384 well V bottom polystyrene plate: O2 through O11, M14 through M23, N14 through N23, and O14 through O23. AM630 (also known as [6-iodo-2-methyl-1-[2-(4-morpholinyl)ethyl]-1H-indol-3-yl](4-methoxyphenyl)-methanone, Cayman Chemical, Cat#10006974) (60 μL, 10 mM) was added to 01; and 1-(2,4-dichlorophenyl)-7-[(4-fluorophenyl)methylene]-4,5,6,7-tetrahydro-N-1-piperidinyl-1H-indazole-3-carboxamide (60 μL, 10 mM) was added to N13. The control was serially diluted ⅓ by transferring and mixing 20 μL sample with 40 μL DMSO. This process resulted 11 doses per control, 10 mM to 0.17 μM.
(§6) Cells plated the day prior to the assay in clear bottom plates were viewed on an inverse microscope to ensure confluency in the range of 60-75%. […]

[2] = target: CB-1 receptor (Human Cannabinoid receptor 1) (Homo sapiens (Human), UniProt P21554); experiment: cAMP HTRF assay, CB-1 inverse agonism in stably transfected HEK-293 cells; assay type: cell-based; conditions: 250 nM Forskolin, mean where tested more than once, read-out: CB1 EC50
From the text: as §1, §2, §3, §4, §5, §6

Sequence of CB-2 receptor (Human CB2R, Cannabinoid receptor 2) (P34972 whole entry): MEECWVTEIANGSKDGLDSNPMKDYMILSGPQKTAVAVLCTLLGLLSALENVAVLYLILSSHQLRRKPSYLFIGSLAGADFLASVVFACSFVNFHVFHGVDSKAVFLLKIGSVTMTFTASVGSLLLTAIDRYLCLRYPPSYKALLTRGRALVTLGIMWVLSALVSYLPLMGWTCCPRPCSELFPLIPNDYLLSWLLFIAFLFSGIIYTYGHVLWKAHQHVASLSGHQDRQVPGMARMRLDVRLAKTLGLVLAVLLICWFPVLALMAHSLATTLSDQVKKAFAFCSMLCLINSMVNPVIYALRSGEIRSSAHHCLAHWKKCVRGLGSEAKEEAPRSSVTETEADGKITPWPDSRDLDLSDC
Sequence of CB-1 receptor (Human Cannabinoid receptor 1) (P21554 whole entry): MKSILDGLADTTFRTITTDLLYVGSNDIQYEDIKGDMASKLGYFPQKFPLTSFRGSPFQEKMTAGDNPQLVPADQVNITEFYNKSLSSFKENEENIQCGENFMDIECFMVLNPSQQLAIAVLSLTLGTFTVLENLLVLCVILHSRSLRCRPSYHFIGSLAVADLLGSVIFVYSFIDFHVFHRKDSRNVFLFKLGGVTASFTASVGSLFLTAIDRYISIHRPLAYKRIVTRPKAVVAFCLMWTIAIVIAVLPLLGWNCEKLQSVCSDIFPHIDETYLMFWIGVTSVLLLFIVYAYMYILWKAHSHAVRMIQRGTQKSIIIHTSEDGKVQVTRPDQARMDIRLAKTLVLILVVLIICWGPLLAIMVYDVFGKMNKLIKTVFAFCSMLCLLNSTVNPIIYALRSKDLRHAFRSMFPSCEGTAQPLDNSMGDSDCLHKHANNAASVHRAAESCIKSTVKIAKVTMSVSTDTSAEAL

SMILES	EC50 [1] [nM]	EC50 [2] [nM]
COCCOCCOCCOCCOCCOCCOCCOCCOCCOCCOCCOCCNC(=O)CCCCCOc1cc(NC2CCN(S(=O)(=O)C(F)(F)F)CC2)c2cc(C(c3ccc(Cl)cc3)c3ccc(Cl)cc3)ccc2n1 [Cpd 6]	3000	19
O=S(=O)(N1CCC(Nc2cc(OCCOCCOCCO)nc3ccc(C(c4ccc(Cl)cc4)c4ccc(Cl)cc4)cc23)CC1)C(F)(F)F [Cpd 8]	> 10000	52
O=S(=O)(N1CCC(Nc2cc(OCCOCCOCCOCCOCCOCCO)nc3ccc(C(c4ccc(Cl)cc4)c4ccc(Cl)cc4)cc23)CC1)C(F)(F)F [Cpd 9]	> 10000	150
O=S(=O)(N1CCC(Nc2cc(OCCOCCOCCOCCOCCOCCOc3ccc(CO)cc3)nc3ccc(C(c4ccc(Cl)cc4)c4ccc(Cl)cc4)cc23)CC1)C(F)(F)F [Cpd 11]	3110	61
NNC(=O)CCOCCOCCOCCOCCOCCOCCOCCOCCOCCOCCOCCOCCNC(=O)OCCOCCOCCOc1cc(NC2CCN(S(=O)(=O)C(F)(F)F)CC2)c2cc(C(c3ccc(Cl)cc3)c3ccc(Cl)cc3)ccc2n1 [Cpd 12]	5400	94

Further lines, results first:

EC50 [1] [nM]	EC50 [2] [nM]	SMILES
4060	240	COCCOCCOCCOCCOCCOCCOCCOCCOCCOCCOCCOCCNC(=O)OCc1ccc(OCCOCCOCCOCCOCCOCCOc2cc(NC3CCN(S(=O)(=O)C(F)(F)F)CC3)c3cc(C(c4ccc(Cl)cc4)c4ccc(Cl)cc4)ccc3n2)cc1 [Cpd 13]
740	77	O=C(O)CCOCCOCCOCCOCCOCCOCCOCCOCCOCCOCCOCCOCCOc1cc(C(c2ccc(Cl)cc2)c2ccc(Cl)cc2)cc2c(NC3CCN(S(=O)(=O)C(F)(F)F)CC3)ccnc12 [Cpd 17]
3300	47	COCCOCCOc1ccc(Nc2cc(=O)[nH]c3ccc(C(c4ccc(Cl)cc4)c4ccc(Cl)cc4)cc23)cc1 [Cpd 20, 6-[bis(4-chlorophenyl)methyl]-4-([4-[2-(2-methoxyethoxy)ethoxy]phenyl]amino)quinolin-2-ol]
> 10000	390	COCCOCCOCCOCCn1c(=O)cc(NC2CCN(S(=O)(=O)C(F)(F)F)CC2)c2cc(C(c3ccc(Cl)cc3)c3ccc(Cl)cc3)ccc21 [Cpd 21]
